Measured values: PMC13192270, “RhlR quorum-sensing receptor ligand sensitivity regulates the differential expression of phenazine genes in Pseudomonas aeruginosa” (Journal of Bacteriology, 2026)
Residue numbers refer to the chain shown, from its start.

How the values were obtained:
[1] = molecular target: T1, RhlR T58L in ΔrhlI strain (Pseudomonas aeruginosa, UniProt P54292, T58L); assay: ChIP-seq of RhlR-binding sites; assay type: cell-based; conditions: 2 µM C4HSL
T1 construct: expressed in transfected cells; host or cells: P. aeruginosa UCBPP-PA14 ΔrhlI, mutant allele placed on the chromosome at the native rhlR locus
T1 sequence (P54292 1-241 T58L): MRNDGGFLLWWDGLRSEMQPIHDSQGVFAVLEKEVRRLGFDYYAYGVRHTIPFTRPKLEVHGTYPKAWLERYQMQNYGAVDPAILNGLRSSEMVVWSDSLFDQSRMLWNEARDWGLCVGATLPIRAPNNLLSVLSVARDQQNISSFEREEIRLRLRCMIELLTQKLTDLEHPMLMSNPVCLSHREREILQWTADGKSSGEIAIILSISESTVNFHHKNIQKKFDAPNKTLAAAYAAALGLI
Description: To determine the molecular basis for lower levels of phz gene expression in a background that expressed a hypersensitive variant of RhlR, we assessed expression of the pqsABCDE operon ([51]). PqsE is required for optimal expression of the phz genes and, thus, pyocyanin production. RhlR was previously characterized as a repressor of the pqsABCDE operon. We hypothesized that a C4HSL hypersensitive variant would repress pqsABCDE expression, which could lead to the observed decrease in phz gene expression. Indeed, pqsA RNA levels were 20% lower in a strain expressing RhlR T58L compared to WT RhlR (Fig. 6A; Table 2). To confirm that the decrease in gene expression led to a decrease in the available PqsE protein that was capable of interacting with RhlR to specifically drive it to the phz promoter, we performed western blot analyses to measure PqsE protein levels in strains expressing RhlR variants (Fig. 7A). […] Thus, we hypothesized that when PqsE levels fall below a certain concentration, PqsE homodimerization cannot occur, thereby preventing PqsE-RhlR complex formation and reducing promoter occupancy. […] We highlight phzA1 and phzM, which share a promoter (Fig. S10A), rhlA (Fig. S10B), and lecB (Fig. S10C) because of the role of the phz and rhlA promoters in regulating pyocyanin and rhamnolipid production (Fig. 5) and because lecB is a well-characterized PqsE-dependent promoter ([37]). As expected, RhlR T58L had lower promoter occupancy than WT RhlR at the phzA1 promoter, likely due to the lower levels of PqsE present (Fig. 7B; Fig. S10A). Conversely, RhlR occupancy at the rhlA promoter was nearly unchanged from WT RhlR (Fig. 7B; Fig. S10B), reflecting the ability of RhlR to bind the promoter primarily through its dependency on C4HSL.
(§1) P. aeruginosa strains were grown overnight, back diluted 1:100 in fresh LB media, and grown to an OD600 = 2.0. Crosslinking, lysis, and immunoprecipitation were performed as previously described ([37]).

[2] = molecular target: T2, RhlR A44M in ΔrhlI strain (Pseudomonas aeruginosa, UniProt P54292, A44M); assay: ChIP-seq of RhlR-binding sites; assay type: cell-based; conditions: 2 µM C4HSL
T2 construct: expressed in transfected cells; host or cells: P. aeruginosa UCBPP-PA14 ΔrhlI, mutant allele placed on the chromosome at the native rhlR locus
T2 sequence (P54292 1-241 A44M): T1 sequence (P54292 1-241 T58L) with A44M, L58T
Description: as §1

## CCCC(=O)N[C@H]1CCOC1=O [C4HSL, N-butyryl-L-homoserine lactone]
[1]
  ChIP-seq enrichment at PA14_01490 (rahU) (peak 139,733): 1,262.3
  ChIP-seq enrichment at PA14_06320 (peak 560,072): 896.4
  ChIP-seq enrichment at PA14_10360 (peak 895,433): 513.5
  ChIP-seq enrichment at PA14_16100*, PA14_16110 (peak 1,372,370): 1,439.9
  ChIP-seq enrichment at PA14_18800 (peak 1,620,628): 405.8
  ChIP-seq enrichment at PA14_18810 operon (peak 1,621,028): 87.2
  ChIP-seq enrichment at PA14_20130, PA14_20140 (fpr) (peak 1,735,823): 380.5
  ChIP-seq enrichment at PA14_21020 (azeB) operon, PA14_21030 (peak 1,816,906): 3,188.5
  ChIP-seq enrichment at PA14_22090 (peak 1,921,598): 349.8
  ChIP-seq enrichment at PA14_28250*, PA14_28260 (peak 2,444,398): 159.5
  ChIP-seq enrichment at PA14_29620, fhp operon (peak 2,568,048): 2,263.3
  ChIP-seq enrichment at PA14_30570, PA14_30580 (vqsR) (peak 2,647,472): 554.8
  ChIP-seq enrichment at PA14_30840* (peak 2,677,542): 4,222.3
  ChIP-seq enrichment at PA14_37745 operon (peak 3,364,761): 433.4
  ChIP-seq enrichment at PA14_48140 operon (peak 4,285,523): 340.9
  ChIP-seq enrichment at PA14_48530 operon (peak 4,313,855): 867.6
  ChIP-seq enrichment at PA14_49310 (peak 4,382,169): 673.4
  ChIP-seq enrichment at PA14_49740, PA14_49750 operon (peak 4,425,570): 2,142.3
  ChIP-seq enrichment at PA14_57970*, PA14_57980 (peak 5,159,548): 228.8
  ChIP-seq enrichment at PA14_59180* (peak 5,268,881): 216.4
  ChIP-seq enrichment at PA_48530* (peak 4,314,560): 229
  ChIP-seq enrichment at arcD operon (peak 6,093,032): 900.8
  ChIP-seq enrichment at hcnA operon, exoY (peak 3,236,436): 1,543.7
  ChIP-seq enrichment at hsiA2 operon, hcpD (peak 3,831,541): 1,100.7
  ChIP-seq enrichment at lasA (peak 3,600,666): 211.7
  ChIP-seq enrichment at lasB (peak 1,387,361): 347.7
  ChIP-seq enrichment at lecB, PA14_20620 operon (peak 1,774,336): 13,604.8
  ChIP-seq enrichment at pa1L (peak 2,721,761): 171.4
  ChIP-seq enrichment at peak 5,414,219: 697
  ChIP-seq enrichment at phzA1 operon, phzM (peak 813,529): 2,515.8
  ChIP-seq enrichment at phzA2 operon (peak 3,561,969): 562.6
  ChIP-seq enrichment at phzB1*, phzC1 (peak 812,427): 968.1
  ChIP-seq enrichment at phzB2*, phzC2 (peak 3,561,157): 75.06
  ChIP-seq enrichment at phzH (peak 64,211): 800.4
  ChIP-seq enrichment at rhlA operon (peak 1,648,391): 3,584.5
  ChIP-seq enrichment at rhlI (peak 1,651,804): 263.1
  ChIP-seq enrichment at rmlB operon (peak 6,082,366): 2,634
  ChIP-seq enrichment at rpsL operon (peak 754,615): 416.1
  ChIP-seq enrichment at tnpS, tnpT operon (peak 3,188,223): 237.1
[2]
  ChIP-seq enrichment at PA14_01490 (rahU) (peak 139,733): 36.29
  ChIP-seq enrichment at PA14_06320 (peak 560,072): 207.8
  ChIP-seq enrichment at PA14_10360 (peak 895,433): 557.9
  ChIP-seq enrichment at PA14_16100*, PA14_16110 (peak 1,372,370): 41.27
  ChIP-seq enrichment at PA14_18800 (peak 1,620,628): 459
  ChIP-seq enrichment at PA14_18810 operon (peak 1,621,028): 216.7
  ChIP-seq enrichment at PA14_20130, PA14_20140 (fpr) (peak 1,735,823): 187.2
  ChIP-seq enrichment at PA14_21020 (azeB) operon, PA14_21030 (peak 1,816,906): 2,385.1
  ChIP-seq enrichment at PA14_22090 (peak 1,921,598): 403.3
  ChIP-seq enrichment at PA14_28250*, PA14_28260 (peak 2,444,398): 18.9
  ChIP-seq enrichment at PA14_29620, fhp operon (peak 2,568,048): 698.1
  ChIP-seq enrichment at PA14_30570, PA14_30580 (vqsR) (peak 2,647,472): 454.9
  ChIP-seq enrichment at PA14_30840* (peak 2,677,542): 631.2
  ChIP-seq enrichment at PA14_37745 operon (peak 3,364,761): 0
  ChIP-seq enrichment at PA14_48140 operon (peak 4,285,523): 89.06
  ChIP-seq enrichment at PA14_48530 operon (peak 4,313,855): 870.2
  ChIP-seq enrichment at PA14_49310 (peak 4,382,169): 273.4
  ChIP-seq enrichment at PA14_49740, PA14_49750 operon (peak 4,425,570): 518.7
  ChIP-seq enrichment at PA14_57970*, PA14_57980 (peak 5,159,548): 16.73
  ChIP-seq enrichment at PA14_59180* (peak 5,268,881): 320.1
  ChIP-seq enrichment at PA_48530* (peak 4,314,560): 476.8
  ChIP-seq enrichment at arcD operon (peak 6,093,032): 97.46
  ChIP-seq enrichment at hcnA operon, exoY (peak 3,236,436): 998.8
  ChIP-seq enrichment at hsiA2 operon, hcpD (peak 3,831,541): 840.8
  ChIP-seq enrichment at lasA (peak 3,600,666): 0
  ChIP-seq enrichment at lasB (peak 1,387,361): 155.1
  ChIP-seq enrichment at lecB, PA14_20620 operon (peak 1,774,336): 3,659.5
  ChIP-seq enrichment at pa1L (peak 2,721,761): 431.4
  ChIP-seq enrichment at peak 5,414,219: 86.36
  ChIP-seq enrichment at phzA1 operon, phzM (peak 813,529): 1,47.87
  ChIP-seq enrichment at phzA2 operon (peak 3,561,969): 134.6
  ChIP-seq enrichment at phzB1*, phzC1 (peak 812,427): 872.5
  ChIP-seq enrichment at phzB2*, phzC2 (peak 3,561,157): 241.2
  ChIP-seq enrichment at phzH (peak 64,211): 1,287.1
  ChIP-seq enrichment at rhlA operon (peak 1,648,391): 636
  ChIP-seq enrichment at rhlI (peak 1,651,804): 425
  ChIP-seq enrichment at rmlB operon (peak 6,082,366): 428.1
  ChIP-seq enrichment at rpsL operon (peak 754,615): 128.1
  ChIP-seq enrichment at tnpS, tnpT operon (peak 3,188,223): 255
